Experimental data published in patent US20070292387A1, “TRANSMUCOSAL DELIVERY OF PHARMACEUTICAL ACTIVE SUBSTANCES” (GWANGJU INSTITUTE OF SCIENCE AND TECHNOLOGY, priority 2006, published 2007).
Where two headings read alike, the source gives them in different places.

How the values were obtained:
Diabetes-induced rats [1] = experiment: Bioavailability calculated from degree of blood glucose control (AUC) after oral administration; assay type: in vivo, rat; settings: insulin 1.77 mg/kg, protease inhibitor not added
Procedure: (§1) An insulin-chitosan conjugate (a conjugate using chitosan of MW 3000, 6000 or 9000 Da) was dissolved in a citrate buffer solution and then diluted with physiological saline to prepare an insulin-chitosan conjugate solution at an insulin concentration of 100 U/mL. Diabetes-induced rats were fasted for 6 hours, and blood was collected from the tail veins of animals and the blood glucose level was determined. The thus-obtained value was used as an initial value prior to administration of the drug. The experimental animals were given oral administration of the above-prepared insulin-chitosan conjugate solution at a dose of 50 IU/kg using a gastric sonde (50 IU is equivalent to 1.77 mg of insulin). As a control, animals were given oral administration of 50 IU/kg insulin and chitosan of MW 9000 Da in the same manner as above. On time points of 1, 2, 3, and 4 hours after administration of the drug, blood was collected from the tail veins of animals and the blood glucose level was determined. The blood glucose level at each time point was calculated by taking the initial value prior to administration of the drug to be 100%.
Then, the bioavailability of conjugates were calculated from the degree of blood glucose control (area under curve, AUC) obtained in FIG. 2 after oral administration of each insulin-chitosan conjugate. […] In addition, as a control, known bioavailability of insulin, a protease-chitosan conjugate and a thiolated chitosan-insulin tablet preparation containing glutathione (a reducing agent) (Krauland A H, et al., J. Control Release, 24; 95(3):547-555 (2004)) was compared.

Diabetes-induced rats [2] = experiment: In vivo oral administration of insulin-chitosan conjugate (blood glucose level); design: species or system rat; settings: FIG. 2
Procedure: as §1

[3] = Plasma paclitaxel after single oral dose with or without P-gp inhibitor cyclosporine A; assay type: in vivo, ICR mice
Procedure: ICR mice (male, 25-30 g) were fasted for 12 hr before dosing. Mice were anesthetized with diethyl ether and administered with a single oral dose of paclitaxel or paclitaxel-chitosan conjugates with or without P-gp inhibitor (cyclosporine A, Sigma, 15 mg/kg) through an oral gavage that was carefully passed down the esophagus into the stomach. The drug solutions were prepared in 10% DMSO solution. The total volume of the administered drug solution was 0.2 ml. Blood (450 μl) was collected from a capillary in the retroorbital plexus and directly mixed with 50 Al of sodium citrate (3.8% solution); the sample was then immediately centrifuged at 3000 rpm at 4° C. for 20 min. The concentrations of paclitaxel in plasma were measured using HPLC after extraction.

[4] = oral, cited from earlier work
B16F10 melanoma cells = experiment: Oral administration in B16F10 melanoma allograft (tumor size, survival); assay type: in vivo, C57BL6 male mice; settings: oral 25 mg/kg, 5 days on, 2 days off, about 30 days; FIG. 7
Procedure: B16F10 melanoma cells were subcutaneously transplanted at a cell density of 5×10^6 cells/mice into a dorsal region of C57BL6 male mice (mean body weight: 25 g). […] Experiments were carried out for mouse groups, each consisting of 5 to 6 animals having the tumor, simultaneously with observation of changes. Animals were given oral administration of the drug or physiological saline for about 30 days, starting on day 10 after tumor transplantation. […] The control group was administered physiological saline, paclitaxel and chitosan. In order to confirm the degree of tumor growth, the size of tumor was daily measured using a calibrator. The tumor size was calculated according to the following Equation (2): Tumor volume (mm^3)=(Length×Width^2)/2 (Equation 2).
The survival rate of mice was also monitored simultaneously with measurement of the tumor size. When the tumor mass reached a size of more than 8000 mm^3, the animals were euthanized.

Molecule: Insulin-9K LMWC: insulin-chitosan conjugate using low molecular weight chitosan of MW 9000 Da
- Bioavailability (%) (IV injection: 100%) (Diabetes-induced rats [1]): 1.0 ± 0.13%
- Bioavailability (%) (SC injection: 100%) (Diabetes-induced rats [1]): 3.69 ± 0.29%

Molecule: insulin-chitosan conjugate: insulin (B29 lysine) bound via -CO-(CH2)2-S-S-(CH2)2-CO- linker to chitosan of MW 3000, 6000 or 9000
- decrease in the blood glucose level compared to the initial blood glucose level (Diabetes-induced rats [2]; 50 IU insulin/kg, 2 hours later): > 40%

Molecule: CC(=O)O[C@H]1C(=O)[C@@]2(C)[C@H]([C@H](OC(=O)c3ccccc3)[C@]3(O)C[C@H](OC(=O)[C@H](O)[C@@H](NC(=O)c4ccccc4)c4ccccc4)C(C)=C1C3(C)C)[C@]1(OC(C)=O)CO[C@@H]1C[C@@H]2O [paclitaxel]
- increase of maximum plasma concentration (Cmax) when coadministrated with cyclosporine A ([3]; cyclosporine A 15 mg/kg, FIG. 6a): 9.3 fold
- Cmax ([3]; male, ICR, mouse, plasma, without cyclosporine A, conjugate chitosan MW 6000, read-out: maximum plasma concentration (Cmax) of paclitaxel): 90 ± 20 ng/mL
- bioavailability of paclitaxel ([4]; PTX only): 4-10%
- bioavailability of paclitaxel ([4]; combined with a P-gp inhibitor such as cyclosporin A or Valspodar): 50-60%
- tumor size compared to the control group (B16F10 melanoma cells): no significant difference in the tumor size

Molecule: Insulin-3K LMWC: insulin-chitosan conjugate using low molecular weight chitosan of MW 3000 Da
- Bioavailability (%) (SC injection: 100%) (Diabetes-induced rats [1]): 1.89 ± 0.32%

Molecule: Insulin-6K LMWC: insulin-6 KDa low molecular weight chitosan conjugate
- Bioavailability (%) (IV injection: 100%) (Diabetes-induced rats [1]): 0.77 ± 0.16%
- Bioavailability (%) (SC injection: 100%) (Diabetes-induced rats [1]): 2.66 ± 0.38%

Molecule: insulin
- lowering of the blood glucose levels (in words) (Diabetes-induced rats [2]; insulin 50 IU/kg, chitosan of MW 9000 Da): no lowering of the blood glucose levels
